One experiment deals with L. rhamnosus GG strain. The experiment can be described thus: Antibiotic susceptibility test, K-B agar method (disc diffusion). It is filed as cell-based, Lactobacillus rhamnosus. To be noted: standard antibiotic disc, 37°C, 48 h; CLSI criteria, breakpoints in mm per antibiotic in c1-c3. As for the experimental part: (§1) The drug susceptibility test was performed using the K-B agar method recommended by the National Committee for Clinical Laboratory Standards (NCCLS), the drug sensitivity test, as follows: • (1) The commercial strain L. rhamnosus GG strain was selected as the control strain. The L. rhamnosus HOM1213 strain and the GG strain were inoculated in MRS liquid medium at an inoculation amount of 3% of the total amount of the medium, cultured at 37°C for 24 hours, and activated continuously for 3 generations for later use. • (2) 1 mL of bacterial solution (1.5 × 10^8 CFU/mL) and 15 mL of MRS solid medium were mixed, and placed in a sterile culture dish, and mixed uniformly. A standard antibiotic susceptibility testing disc was placed after the plate was solidified, and cultured at 37°C for 48 h, and the diameter of the inhibition zone was measured and recorded.
(§2) Table 3. Results of susceptibility test of L. rhamnosus HOM1213 strain on nine antibiotics.

The subject of experiment [1] is L. rhamnosus HOM1213 strain. Described as above. It is filed as cell-based, Lactobacillus rhamnosus. As to conditions: for Susceptibility (class by Diameter of Inhibition Zone), HOM1213 Group: standard antibiotic disc, 37°C, 48 h, CLSI criteria, breakpoints in mm per antibiotic in c1-c3; for Susceptibility of L. rhamnosus HOM1213 strain to the antibiotic, in words: summary of Table 3. As for the experimental part:
as §1, §2

Experiment [2] in a line: In vitro antioxidant capacity test: total antioxidant capacity (T-AOC). As to conditions: strain suspension 2 × 10^10 CFU/ml; vitamin C 0.05%; mean ± SD. As for the experimental part: (§3) The L. rhamnosus HOM1213 isolated in Example 1 and GG strains were inoculated in an MRS liquid medium at an inoculation amount of 3% of the total amount of the medium, fermented and cultured at 37°C for 24 h, activated continuously for 3 generations. It was centrifuged at 11000 rpm for 10 min, and the bacterial cells were washed with PBS buffer, resuspended and centrifuged, repeated three times. The count of bacteria was adjusted to 2 × 10^10 CFU/ml for later use. Indicators included total antioxidant capacity (T-AOC), superoxide dismutase (SOD), glutathione peroxidase (GSH-Px), glutathione (GSH), hydroxyl radical scavenging test (·OH), and DPPH radical scavenging test. The DPPH free radical scavenging test used a colorimetric method, and its principle was that the free radical scavenger donated an electron to pair with the lone pair electron of the DPPH free radicals, so that its own color changed from purple to yellow. Its absorbance at the wavelength of 517 nm decreased, and the degree of change has a linear relation to the degree of free radical scavenging, that is, the stronger the scavenging ability of the free radical scavenger, the lower the absorbance. Other indicators were determined by using a kit purchased from Nanjing Jiancheng Company, according to operation instructions. […]

The subject of experiment [3] is superoxide dismutase (SOD). The experiment can be described thus: In vitro antioxidant capacity test: superoxide dismutase (SOD). As to conditions: strain suspension 2 × 10^10 CFU/ml; vitamin C 0.05%; mean ± SD. As for the experimental part: as §3
Another experiment has as its system glutathione (GSH). Description: In vitro antioxidant capacity test: glutathione (GSH). To be noted: strain suspension 2 × 10^10 CFU/ml; vitamin C 0.05%; mean ± SD. As for the experimental part:
as §3

The nature of experiment [4]: Hydroxyl radical scavenging test (·OH). To be noted: strain suspension 2 × 10^10 CFU/ml; vitamin C 0.05%; mean ± SD. Here is the method: as §3
Experiment [5] is described as follows: DPPH radical scavenging test (colorimetric, 517 nm). As to conditions: strain suspension 2 × 10^10 CFU/ml; vitamin C 0.05%; mean ± SD. As for the experimental part: as §3
On the technique in general: Loss of DPPH colour is used to gauge radical scavenging.
For Susceptibility (class by Diameter of Inhibition Zone), GG Group in this document: key: S (susceptible) represents sensitivity; I (intermediate) represents moderate sensitivity; R (resistance) represents drug resistance.
For Susceptibility (class by Diameter of Inhibition Zone), HOM1213 Group in this document: key: S (susceptible) represents sensitivity; I (intermediate) represents moderate sensitivity; R (resistance) represents drug resistance.

Consider Gentamicin, for which the “Susceptibility (class by Diameter of Inhibition Zone), GG Group” value in the experiment with L. rhamnosus GG strain is “R”. In addition, in experiment [1], the “Susceptibility (class by Diameter of Inhibition Zone), HOM1213 Group” value was “R” and the “Susceptibility of L. rhamnosus HOM1213 strain to the antibiotic, in words” value (“Susceptibility … in words” for short) was “resistant”.
Regarding `CC1(C)S[C@@H]2[C@H](NC(=O)[C@H](N)c3ccccc3)C(=O)N2[C@H]1C(=O)O` [Ampicillin], the “Susceptibility (class by Diameter of Inhibition Zone), GG Group” value with L. rhamnosus GG strain was “R”. Besides, in experiment [1], the “Susceptibility (class by Diameter of Inhibition Zone), HOM1213 Group” value was “R” and the “Susceptibility … in words” value is “resistant”.
Take `CC[C@H]1OC(=O)[C@H](C)[C@@H](O[C@H]2C[C@@](C)(OC)[C@@H](O)[C@H](C)O2)[C@H](C)[C@@H](O[C@@H]2O[C@H](C)C[C@H](N(C)C)[C@H]2O)[C@](C)(O)C[C@@H](C)C(=O)[C@H](C)[C@@H](O)[C@]1(C)O` [Erythromycin]: the “Susceptibility (class by Diameter of Inhibition Zone), GG Group” value with L. rhamnosus GG strain is recorded as “S”. Moreover, the “Susceptibility (class by Diameter of Inhibition Zone), HOM1213 Group” value in experiment [1] was “S”.
As to `O=C(N[C@H](CO)[C@H](O)c1ccc([N+](=O)[O-])cc1)C(Cl)Cl` [Chloramphenicol], the “Susceptibility (class by Diameter of Inhibition Zone), GG Group” value with L. rhamnosus GG strain is on record as “S”. The “Susceptibility (class by Diameter of Inhibition Zone), HOM1213 Group” value in experiment [1] was “S”.
Consider `CCC[C@@H]1C[C@@H](C(=O)N[C@@H]([C@H]2O[C@H](SC)[C@H](O)[C@@H](O)[C@H]2O)[C@H](C)Cl)N(C)C1` [Clindamycin], for which the “Susceptibility (class by Diameter of Inhibition Zone), GG Group” value in the experiment with L. rhamnosus GG strain is recorded as “S”. Also, the “Susceptibility (class by Diameter of Inhibition Zone), HOM1213 Group” value in experiment [1] is listed as “S”.
Consider `NC[C@H]1O[C@H](O[C@H]2[C@H](O)[C@@H](O[C@H]3O[C@H](CO)[C@@H](O)[C@H](N)[C@H]3O)[C@H](N)C[C@@H]2N)[C@H](O)[C@@H](O)[C@@H]1O` [Kanamycin], for which the “Susceptibility (class by Diameter of Inhibition Zone), GG Group” value in the experiment on L. rhamnosus GG strain is “R”. Besides, the “Susceptibility (class by Diameter of Inhibition Zone), HOM1213 Group” value in experiment [1] was “R”.
On to `CN(C)[C@@H]1C(O)=C(C(N)=O)C(=O)[C@@]2(O)C(O)=C3C(=O)c4c(O)cccc4[C@@](C)(O)[C@H]3C[C@@H]12` [Tetracycline], for which, in the experiment on L. rhamnosus GG strain, the “Susceptibility (class by Diameter of Inhibition Zone), GG Group” value is “S”. For the same compound, in experiment [1], the “Susceptibility (class by Diameter of Inhibition Zone), HOM1213 Group” value is “S”.
Turning to `O=C1O[C@H]([C@@H](O)CO)C(O)=C1O` [Vitamin C], the T-AOC in experiment [2] turned out to be 16.90±1.42 U/mL. In experiment [3], this compound showed an SOD of 18.07±1.08 U/mL. For the same compound, in the experiment with glutathione (GSH), the GSH worked out at 0.33±0.06 mgGSH/L. Also, the “·OH Scavenging Rate (%)” value in experiment [4] came out at 36.70±1.33%. The “DPPH Scavenging Rate (%)” value in experiment [5] is given as 96.14±0.08%.
As to `[H]/N=C(/N)N[C@H]1[C@H](O)[C@@H](O)[C@H](O[C@@H]2O[C@@H](C)[C@](O)(C=O)[C@H]2O[C@@H]2O[C@@H](CO)[C@H](O)[C@@H](O)[C@@H]2NC)[C@@H](N/C(N)=N\[H])[C@@H]1O` [Streptomycin], the “Susceptibility (class by Diameter of Inhibition Zone), GG Group” value with L. rhamnosus GG strain is given as “I”. Moreover, in experiment [1], the “Susceptibility (class by Diameter of Inhibition Zone), HOM1213 Group” value is “I” and the “Susceptibility … in words” value is listed as “moderately resistant”.
Consider `CN[C@H](CC(C)C)C(=O)N[C@H]1C(=O)N[C@@H](CC(N)=O)C(=O)N[C@H]2C(=O)N[C@H]3C(=O)N[C@H](C(=O)N[C@H](C(=O)O)c4cc(O)cc(O)c4-c4cc3ccc4O)[C@H](O)c3ccc(c(Cl)c3)Oc3cc2cc(c3O[C@@H]2O[C@H](CO)[C@@H](O)[C@H](O)[C@H]2O[C@H]2C[C@](C)(N)[C@H](O)[C@H](C)O2)Oc2ccc(cc2Cl)[C@H]1O` [Vancomycin], for which the “Susceptibility (class by Diameter of Inhibition Zone), GG Group” value in the experiment on L. rhamnosus GG strain is recorded as “R”. Moreover, in experiment [1], the “Susceptibility (class by Diameter of Inhibition Zone), HOM1213 Group” value is “R” and the “Susceptibility … in words” value is on record as “resistant”.
